Test results published in patent US20090247636A1, “AGENT FOR SUPPRESSION OF GASTRIC EMPTYING COMPRISING 4-HYDROXYISOLEUCINE” (AJINOMOTO CO., INC.,, priority 2006, published 2009).

How the values were obtained:
insulin secretion = details: in vitro; cited from earlier work
gastric emptying = test: Gastric emptying-suppressive action (phenol red test meal); assay type: in vivo, Sprague Dawley rats; details: 500 mg/kg oral, test meal 1 hour later, stomach isolated after 90 minutes, vs vehicle, p<0.05, FIG. 1
Description: Male Sprague Dawley rats (12 weeks of age, Charles River Laboratories Japan Inc.) (n=5) were used. After fasting for 20 hours, distilled water for injection (5 mL/kg) was orally administered to a vehicle group and 4-hydroxyisoleucine (500 mg/5 mL/kg) was orally administered to a 4-hydroxyisoleucine administration group. One hour later, a test meal (1.5% methylcellulose, 0.05% phenol red, 1.5 ml) was orally administered. After 90 minutes, the stomach was isolated under an ether anesthesia, the gastric contents were recovered and the remaining phenol red was quantified. A control group was prepared. After fasting for 20 hours, a test meal (1.5% methylcellulose, 0.05% phenol red, 1.5 mL) was orally administered. Immediately after administration of the test meal, the stomach was isolated under an ether anesthesia, the gastric contents were recovered and the remaining phenol red was quantified. The gastric emptying was calculated by the following formula.
Gastric emptying (%)=(1-phenol red amount of each individual/average phenol red amount of control group*)×100*:test meal alone was administered, n=2
The difference between the 4-hydroxyisoleucine (HIL) administration group and the distilled water for injection (vehicle) administration group was detected according to Student's t test, and p<0.05 was judged as significant.

body weight gain = details: high-fat diet-fed mouse; cited from earlier work
[1] = in vivo; cited from earlier work
food intake = test: Food intake suppressive action (cumulative feed intake); assay type: in vivo, Wistar rats; details: 500 mg/kg oral after fasting for 9 hours, vs vehicle, p<0.05, FIG. 2
Description: Male Wistar rats (7 weeks of age, Charles River Laboratories Japan Inc.) (n=5) were used. After fasting for 9 hours, distilled water for injection (5 mL/kg) or 4-hydroxyisoleucine (50, 150, 500 mg/5 mL/kg) was orally administered at 18:00. Immediately thereafter, feeding was started. The cumulative feed intake was measured at 30 min, 1 hr, 3 hr and 16 hr after the administration. […] The difference between the 4-hydroxyisoleucine administration group and the distilled water for injection (vehicle) administration group was detected according to Student's t test, and p<0.05 was judged as significant.

C[C@@H]([C@H](C)O)[C@H](N)C(=O)O [4-hydroxyisoleucine]
insulin secretagogue action (insulin secretion): shows an insulin secretagogue action | Gastric emptying (%) (gastric emptying): significantly suppressed | suppression of body weight gain (body weight gain): does not show such action | antidiabetic action [1]: an antidiabetic action | food intake (cumulative feed intake) (food intake): significantly suppressed
